How the values were obtained:
human finger tip = conditions: in vivo, 5 min
Method: Raman spectra were collected from a human finger tip irradiated with a near-infrared laser beam using conventional equipment, including a light collection and analysis system. Test agents were applied to the finger tip and allowed to penetrate the tissue for 5 minutes before rinsing the finger tip with acetone.

lab rats = conditions: cited from earlier work

| depth of penetration indicated by persistence of peak near 2200 cm^-1 (human finger tip) | SMILES | symptoms at about double the 10-15% body water replacement (lab rats; lab rats, continuous regimen of D2O) | share of total body water weight replaced by D2O below which there are no signs of ingestion or poisoning (lab rats; rat, in vivo) |
| --- | --- | --- | --- |
| 1-2 mm | [2H]C([2H])([2H])C([2H])([2H])C([2H])([2H])C([2H])([2H])C([2H])([2H])C([2H])([2H])C([2H])([2H])C([2H])([2H])C([2H])([2H])C([2H])([2H])C([2H])([2H])C([2H])([2H])C([2H])([2H])C([2H])([2H])C([2H])([2H])C([2H])([2H])C([2H])([2H])C(=O)O [stearic acid-d35] |  |  |
|  | [2H]O[2H] [D2O] | severe | 10-15% |

From patent US20020041848A1, “Chemically Specific Imaging Of Tissue” (priority 1999, published 2002)
